From PMC11881906, “Development of xanthone derivatives as effective broad-spectrum antimicrobials: Disrupting cell wall and inhibiting DNA synthesis” (Science Advances, 2025)
Converted amounts (≈) assume the structure as drawn.

Key:
[1] = system: E. coli ATCC 25922; assay: MIC, broth microdilution; format: cell-based, Escherichia coli; conditions: 24-hour incubation, MHB; for MIC90: Escherichia coli, ATCC25922, 24 h, read-out: MIC90 E. coli ATCC 25922
Experimental: (§1) MIC was determined using the broth microdilution method in accordance with Clinical and Laboratory Standards Institute guidelines. All compounds were dissolved in dimethyl sulfoxide (DMSO; final DMSO concentration of less than 0.5%) and sterile double-distilled water and then diluted with Mueller-Hinton broth (MHB). Each compound’s stock solution was serially twofold diluted, resulting in concentrations ranging from 0.39 to 100 μg/ml, and thereafter added to sterile 96-well plates. All bacterial cell suspensions were adjusted in MHB to attain a starting inoculum of 1 × 10^6 cells/ml. A total of 100 μl volume of the bacterial suspension was then added to each well. Following a 24-hour incubation at 37°C, the optical density at 600 nm (OD600) was confirmed by measuring absorbance at 600 nm with a BioTek microplate reader. […] All measurements were repeated three times with duplicates each time.

[2] = system: S. aureus ATCC 29213; assay: MIC, broth microdilution; format: cell-based; conditions: Staphylococcus aureus, ATCC29213, 24 h, 24-hour incubation, MHB; read-out: MIC90 S. aureus ATCC 29213
Experimental: as §1

[3] = system: MRSA NCTC 10442; assay: MIC, broth microdilution; format: cell-based; conditions: Staphylococcus aureus; 24-hour incubation, MHB; read-out: MIC90 MRSA NCTC 10442
Experimental: as §1

[4] = system: MRSA N315; assay: MIC, broth microdilution; format: cell-based; conditions: Staphylococcus aureus, 24-hour incubation, MHB, read-out: MIC90 MRSA N315
Experimental: as §1

[5] = system: rabbit erythrocytes; assay: Hemolysis assay; format: cell-based; conditions: concentration causing 50% hemolysis of red blood cells; 1 hour, 37°C
Experimental: The hemolytic activity of antimicrobial agents was investigated as previously described ([70]). Briefly, the rabbit erythrocytes were centrifuged at 2500 rpm for 3 min before being washed twice with sterile phosphate-buffered saline (PBS) (pH 7.4). Subsequently, the erythrocytes were diluted with PBS to a final concentration of 8% (v/v). The DMSO-dissolved compounds were twofold serially diluted in PBS to achieve a final concentration with DMSO less than 0.5%. […] Sterile PBS and 0.2% Triton X-100 were used as negative and positive controls, respectively. After 1 hour of incubation at 37°C, the tested samples were centrifuged at 2500 rpm for 5 min, and aliquots of the supernatant were added to 96-well microplates. The hemoglobin release was determined by measuring the absorbance at 576 nm using a BioTek multimode reader. The percentage of hemolytic activity was calculated using the following formula: Hemolysis rate (%) = [OD576 (compound) − OD576 (PBS)]/[OD576 (Triton X-100) − OD576 (PBS)] × 100. All measurements were repeated three times with duplicates each time.

[6] = system: K. pneumonia ATCC 14581; assay: MIC, broth microdilution; format: cell-based; conditions: Klebsiella pneumoniae, ATCC14581; 24-hour incubation, MHB
Experimental: as §1

[7] = system: K. pneumonia ATCC 10031; assay: MIC, broth microdilution; format: cell-based; conditions: Klebsiella pneumoniae, ATCC10031; 24-hour incubation, MHB
Experimental: as §1

[8] = system: A. baumannii ATCC 17978; assay: MIC, broth microdilution; format: cell-based; conditions: Acinetobacter baumannii, ATCC17978; 24-hour incubation, MHB
Experimental: as §1

[9] = system: P. aeruginosa ATCC 9027; assay: MIC, broth microdilution; format: cell-based; conditions: Pseudomonas aeruginosa, ATCC9027; 24-hour incubation, MHB
Experimental: as §1

[10] = system: A. baumannii R2889; assay: MIC, broth microdilution; format: cell-based; conditions: Acinetobacter baumannii, 24-hour incubation, MHB
Experimental: as §1

[11] = system: Gram-positive bacteria; assay: MIC, summary over Gram-positive strains; format: cell-based; conditions: read-out: MICs against Gram-positive bacteria, three Gram-positive strains
Experimental: as §1

[12] = CCK-8 cytotoxicity assay; format: cell-based; conditions: mouse, NCTC clone 929 fibroblast cells, 25 μg/ml, read-out: %Viable cells NCTC clone 929 cells
Experimental: Cytotoxicity of the compound tested was assessed by CCK-8 assays as previously described ([71]). […] Following a 24-hour incubation, 10 μl of CCK-8 reagent was added to each well and incubated for 1 hour. The absorbance at 450 nm was measured by a microplate reader. All measurements were repeated three times with duplicates each time.

| SMILES | MIC90 [1] | MIC90 [2] | MIC90 [3] | MIC90 [4] | MIC90 E. coli ATCC 25922 [1] | HC50 [5] | MIC90 [6] | MIC90 [7] | MIC90 [8] | MIC90 [9] | MIC90 [10] | MIC [11] | viability at 24 h, 25 μg/ml [12] |
| --- | --- | --- | --- | --- | --- | --- | --- | --- | --- | --- | --- | --- | --- |
| CCN(CC)CCCCOc1ccc2c(=O)c3c(OCC=C(C)C)cc(OCCCCN(CC)CC)cc3oc2c1 [XT32] | 100 µg/mL (≈ 176 µM) | 3.12 µg/mL (≈ 5.51 µM) | 3.12 µg/mL (≈ 5.51 µM) | 6.25 µg/mL (≈ 11 µM) |  | >200 µg/mL |  |  |  |  |  |  |  |
| CCN(CC)CCCCCCOc1ccc2c(=O)c3c(OCC=C(C)C)cc(OCCCCCCN(CC)CC)cc3oc2c1 [XT35] | 50 µg/mL (≈ 80.3 µM) | 1.56 µg/mL (≈ 2.5 µM) | 3.12 µg/mL (≈ 5.02 µM) | 3.12 µg/mL (≈ 5.02 µM) |  | >200 µg/mL |  |  |  |  |  |  |  |
| CCN(CC)CCCCCCCCOc1ccc2c(=O)c3c(OCC=C(C)C)cc(OCCCCCCCCN(CC)CC)cc3oc2c1 [XT38] | > 50 µg/mL | 0.39 µg/mL (≈ 0.574 µM) | 1.56 µg/mL (≈ 2.3 µM) | 0.78 µg/mL (≈ 1.15 µM) |  | >200 µg/mL |  |  |  |  |  |  |  |
| CNCCCCCCCCCCCCOc1ccc2c(=O)c3c(OCC=C(C)C)cc(OCCCCCCCCCCCCNC)cc3oc2c1 [XT40] | > 100 µg/mL | 25 µg/mL (≈ 35.4 µM) | 6.25 µg/mL (≈ 8.84 µM) | 12.5 µg/mL (≈ 17.7 µM) | >100 µg/mL | >200 µg/mL |  |  |  |  |  |  |  |
| CCN(CC)CCCCCCCCCCCCOc1ccc2c(=O)c3c(OCC=C(C)C)cc(OCCCCCCCCCCCCN(CC)CC)cc3oc2c1 [XT41] | > 100 µg/mL |  | 3.12 µg/mL (≈ 3.95 µM) | 3.12 µg/mL (≈ 3.95 µM) | >100 µg/mL | >200 µg/mL |  |  |  |  |  |  |  |
| CC(C)=CCOc1cc(OCCNC(=N)N)cc2oc3cc(OCCNC(=N)N)ccc3c(=O)c12 [XT42] |  | 1.56 µg/mL (≈ 3.23 µM) | 1.56 µg/mL (≈ 3.23 µM) | 1.56 µg/mL (≈ 3.23 µM) |  | >200 µg/mL | 50 µg/mL (≈ 104 µM) | 50 µg/mL (≈ 104 µM) | > 50 µg/mL | 6.25 µg/mL (≈ 13 µM) | > 50 µg/mL | 0.098 to 1.56 µg/mL (≈ 0.203 to 3.23 µM) |  |
| CC(C)=CCOc1cc(OCCCCNC(=N)N)cc2oc3cc(OCCCCNC(=N)N)ccc3c(=O)c12 [XT43] | 1.56 to 12.5 µg/mL (≈ 2.9 to 23.2 µM) | 0.195 µg/mL (≈ 0.362 µM) | 0.195 µg/mL (≈ 0.362 µM) | 0.195 µg/mL (≈ 0.362 µM) | 1.56 µg/mL (≈ 2.9 µM) | >200 µg/mL | 12.5 µg/mL (≈ 23.2 µM) | 6.25 µg/mL (≈ 11.6 µM) | 12.5 µg/mL (≈ 23.2 µM) | 12.5 µg/mL (≈ 23.2 µM) | 25 µg/mL (≈ 46.4 µM) | 0.098 to 1.56 µg/mL (≈ 0.182 to 2.9 µM) | 40.3 ± 1.33% |
| CC(C)=CCOc1cc(OCCCCCCCCNC(=N)N)cc2oc3cc(OCCCCCCCCNC(=N)N)ccc3c(=O)c12 [XT45] |  | 0.39 µg/mL (≈ 0.599 µM) | 0.39 µg/mL (≈ 0.599 µM) | 0.195 µg/mL (≈ 0.3 µM) |  | >200 µg/mL | 25 µg/mL (≈ 38.4 µM) | 12.5 µg/mL (≈ 19.2 µM) | 50 µg/mL (≈ 76.8 µM) | > 50 µg/mL | 50 µg/mL (≈ 76.8 µM) | 0.098 to 1.56 µg/mL (≈ 0.151 to 2.4 µM) |  |

Continued by falling MIC90 [1], values first:

| MIC90 [1] | MIC90 [2] | MIC90 [3] | MIC90 [4] | MIC90 E. coli ATCC 25922 [1] | SMILES | HC50 [5] | MIC90 [6] | MIC90 [7] | MIC90 [8] | MIC90 [9] | MIC90 [10] | MIC [11] | viability at 24 h, 25 μg/ml [12] |
| --- | --- | --- | --- | --- | --- | --- | --- | --- | --- | --- | --- | --- | --- |
| 12.5 µg/mL (≈ 25.9 µM) | 6.25 µg/mL (≈ 13 µM) | 6.25 µg/mL (≈ 13 µM) | 6.25 µg/mL (≈ 13 µM) |  | CNCCCCOc1ccc2c(=O)c3c(OCC=C(C)C)cc(OCCCCNC)cc3oc2c1 [XT31] | >200 µg/mL |  |  |  |  |  |  |  |
| 12.5 µg/mL (≈ 27.5 µM) | 3.12 µg/mL (≈ 6.87 µM) | 3.12 µg/mL (≈ 6.87 µM) | 3.12 µg/mL (≈ 6.87 µM) |  | CC(C)=CCOc1cc(OCCCCN)cc2oc3cc(OCCCCN)ccc3c(=O)c12 [XT33] | >200 µg/mL |  |  |  |  |  |  |  |
| 12.5 µg/mL (≈ 23.2 µM) | 1.56 µg/mL (≈ 2.9 µM) | 1.56 µg/mL (≈ 2.9 µM) | 1.56 µg/mL (≈ 2.9 µM) |  | CNCCCCCCOc1ccc2c(=O)c3c(OCC=C(C)C)cc(OCCCCCCNC)cc3oc2c1 [XT34] | >200 µg/mL |  |  |  |  |  |  |  |
| 6.25 µg/mL (≈ 10.5 µM) | 0.78 µg/mL (≈ 1.31 µM) | 0.39 µg/mL (≈ 0.656 µM) | 0.39 µg/mL (≈ 0.656 µM) |  | CNCCCCCCCCOc1ccc2c(=O)c3c(OCC=C(C)C)cc(OCCCCCCCCNC)cc3oc2c1 [XT37] | >200 µg/mL |  |  |  |  |  |  |  |
